How the values were obtained:
[1] = tested on: HEK293 cells phosphoproteome; test: Phosphoproteomics in HEK293 cells; type: cell-based, human; set-up: scale not given here; conditions: vs DMSO; phosphosite abundance difference; MOESM9
Description: IMAC beads were prepared from Ni-NTA (nitrilotriacetic acid) superflow agarose beads. The nickel was stripped with 100 mM EDTA and incubated in an aqueous solution of 10 mM iron (III) chloride (FeCl3). Dried peptide fractions were reconstituted to a concentration of 0.5 μg/μL in 80% ACN/0.1% TFA. Peptide mixtures were enriched for phosphorylated peptides with 5 μL IMAC beads for 30 min with end-to-end rotation.
Enriched IMAC beads were loaded on Empore C18 silica-packed stage tips. Stage tips were equilibrated with acetonitrile followed by 50% ACN/0.1% FA then 1% FA. The beads with enriched peptides were loaded onto C18 stage tips and washed with 80% ACN/0.1% TFA. Phosphorylated peptides were eluted from IMAC beads with 500 mM dibasic sodium phosphate, pH 7.0. These peptides were washed with 1% FA before elution using 50% acetonitrile in 0.1% FA. The peptides were then dried by SpeedVac and stored at −20 °C until mass spectrometry analysis. The dried phosphopeptides were reconstituted in 0.1% formic acid and analyzed on an Orbitrap Ascend mass spectrometer coupled to a Thermo Fisher Scientific Vanquish Neo UHPLC. […] The total run time was set to 155 min. A survey full scan MS (from m/z 350–1500) was acquired in the Orbitrap at a resolution of 120,000 at 200 m/z. The most intense ions with charge state ≥2 were isolated and fragmented using higher collision dissociation (HCD) fragmentation, with 30% normalised collision energy, and detected at a mass resolution of 50,000 at 200 m/z. The isolation window was set at 1.6. The phosphoproteomics raw data were searched using SEQUEST HT search engines with Proteome Discoverer 3.0 (Thermo Fisher Scientific). The following parameters were used for searches: Precursor mass tolerance 10 ppm, fragment mass tolerance 0.02, enzyme: trypsin, […], fixed modification: carbamidomethylation of cysteine residues and TMT of lysine and N-terminal, dynamic modification: oxidation of methionine and phosphorylation of serine, threonine and tyrosine. The data were filtered for 1% PSM and peptide level. A two-tailed t-test with 250 randomisations was performed in Perseus software (v1.6.15.0) to assess statistical significance between groups. The resulting data were visualised as a volcano plot using GraphPad Prism (v10.1.2).

[2] = tested on: GSK3, total β-catenin, phospho-CRMP2; test: GSK3 and GSK3 substrates immunoblot in differentiated SH-SY5Y cells, 24 h; type: cell-based, human
Description: HEK293 cells purchased from ATCC and MEF cells were kindly gifted by MRC PPU reagents and services at the University of Dundee. HEK293 and MEF cells were maintained in DMEM (high glucose, GlutaMAX; Gibco) containing 10% foetal bovine serum (FBS; Thermo Fisher), 100U ML-1 penicillin-streptomycin (Thermo Fisher). HAP1 wild type and HAP1 Cereblon Knock-out cell line (CRBN-KO, HZGHC003752c001, Horizon) was a gift from the Ciulli Lab. HAP1 cells were cultured in IMDM (Gibco) with the same additives described as above. SH-SY5Y human neuroblastoma cells (ATCC, CRL-2266) maintained in DMEM (high glucose, Gibco) supplemented with same additives as above. For differentiation, 5 × 10^5 cells were seeded into each well of 6 well plates and differentiated into a more neuronal-like phenotype by treating for 5 days with 10 µM retinoic acid (F9665, Sigma), changing the media every day for the first 3 days[39],[40]. […]
HEK293, HAP1, HAP1 CRBN KO and SH-SY5Y cells were plated in either 6 cm plates or 6-well plates at varying densities (0.5–0.7 × 10^6 cells per plate or wells), and MEF cells were plated in 10 cm plates (1–1.2 × 10^6 cells per plate) depending on experimental set up in respective culturing condition as described above. […] Following clearance of lysates, protein concentrations were determined by the BCA assay (Fisher Scientific, 23225) or Bradford assay (Bio-rad). […]

mouse liver proteome = test: Whole proteome analysis of liver tissue from PK/PD study; type: in vivo, female Balb/c mice; conditions: 5 mg/kg i.v., 4 h; GSK3α could not be quantified

Cn1nc(N2CCC(=O)NC2=O)c2ccc(CN3CCN(Cc4ccc(-c5cn(-c6ccc(-c7cn8nccc(C(=O)Nc9cnccc9N9CCOCC9)c8n7)cc6)nn5)nc4)CC3)cc21 [compound 24]
Difference, Q5PRF9 1xPhospho [S592(100)] SAMD4B [1]: 0.2452 | Difference, Q8NEM7 1xPhospho [S437(100)] SUPT20H [1]: 0.1561 | Difference, Q96KQ7 1xPhospho [S140(100)] EHMT2 [1]: 0.2159 | Difference, Q15398 1xPhospho [S725(100)] DLGAP5 [1]: -0.5208 | Difference, Q15911 1xPhospho [S426(100)] ZFHX3 [1]: -0.09567 | phospho-CRMP2 level ([2]; concurrent with GSK3 degradation): concurrent reduction in phospho-CRMP2 | dose at which β-catenin stabilisation most clear ([2]; highest tested dose): 100 nM | proteome wide specificity in liver (mouse liver proteome): high levels of proteome wide specificity for GSK3β removal

From PMC12501029, “Discovery of a CNS active GSK3 degrader using orthogonally reactive linker screening” (Nature Communications, 2025)
